The test system of experiment [1] is adhesion of leukocytes to the endothelium. In words: Leukocyte adhesion in vivo (intravital microscopy on the rat mesentery, LPS-induced). The following applies: 10 mg/kg i.v., SPRD(m) rat, LPS 15 mg/kg 15 min after test substance; vs untreated controls. The text has this: Leukocyte adhesion--Examination of the efficacy of the compounds according to the invention in vivo (intravital microscopy on the rat):
The induced adhesion of leukocytes is quantified in the rat mesentery using an intravital microscopic investigation technique (Atherton A. and Born G. V. R., Quantitative investigations of the adhesiveness of circulating polymorphonuclear leukocytes to blood vessel walls. J. Physiol. 222, 447-474, 1972); herein incorporated by reference. A prolonged anesthesia is instituted, under inhalation anesthesia with ether, by injecting urethane ([…] of body weight) intramuscularly. Blood vessels (femoral vein for injection of substances and carotid artery for measuring blood pressure) are exposed by dissection and catheters are then tied into them. After that, the corresponding transparent tissue (mesentery) is exposed spread out on a microscope stage and overlaid with paraffin oil at 37° C. […] The resulting increase in the adhesion of leukocytes to the endothelium is quantified directly by means of vital microscopy or using fluorescence dyes. […] The number of rolling leukocytes (i.e. all leukocytes which are visibly rolling and which are slower than the flowing erythrocytes) and the number of leukocytes which are adhering to the endothelium (dwell time longer than 5 seconds) are recorded every 10 minutes for a period of 60 minutes. […]

For experiment [2], the target named is T1, P selectin (Homo sapiens, UniProt P16109).
T1 construct: formed from the extracytoplasmic domain of either E selectin or P selectin; made in house; culture supernatant, captured on anti-human IgG
T1 sequence (P16109 42-771): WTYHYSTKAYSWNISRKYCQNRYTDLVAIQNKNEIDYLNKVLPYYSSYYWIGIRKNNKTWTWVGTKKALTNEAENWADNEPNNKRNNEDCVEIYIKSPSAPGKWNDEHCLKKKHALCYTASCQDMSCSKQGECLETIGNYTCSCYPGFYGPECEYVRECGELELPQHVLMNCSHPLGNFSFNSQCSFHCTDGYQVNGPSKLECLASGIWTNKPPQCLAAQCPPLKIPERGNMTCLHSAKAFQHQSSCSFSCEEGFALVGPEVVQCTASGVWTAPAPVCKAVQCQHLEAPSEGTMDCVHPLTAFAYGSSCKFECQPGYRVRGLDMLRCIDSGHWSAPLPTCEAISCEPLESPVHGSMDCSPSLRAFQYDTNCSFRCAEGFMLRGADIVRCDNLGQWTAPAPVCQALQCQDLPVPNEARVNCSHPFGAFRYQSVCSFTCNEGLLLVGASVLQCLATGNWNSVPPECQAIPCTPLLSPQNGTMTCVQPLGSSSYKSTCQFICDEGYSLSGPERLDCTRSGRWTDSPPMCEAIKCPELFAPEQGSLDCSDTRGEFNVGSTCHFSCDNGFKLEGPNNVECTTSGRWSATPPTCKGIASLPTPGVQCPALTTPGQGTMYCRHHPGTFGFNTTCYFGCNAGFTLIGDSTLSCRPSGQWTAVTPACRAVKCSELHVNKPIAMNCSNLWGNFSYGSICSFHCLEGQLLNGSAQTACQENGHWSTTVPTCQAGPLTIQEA
In words: HL60 cell adhesion assay on recombinant, soluble P selectin-IgG1 fusion protein. The following applies: HL60 cells. The class given is cell-based. The text has this: (§1) Primary assays for investigating the effect of the compounds according to the present invention on the adherence of cells to recombinant, soluble selectin fusion proteins.
(§2) In order to test the efficacy of the compounds according to the invention of the interaction between the E and P selectins (old nomenclature, ELAM-1 and GMP-140, respectively) and their ligands, an assay is used which is in each case specific for only one of these interactions. The ligands are presented in their natural form as surface structures on promyelocytic HL60 cells. […] Recombinantly prepared soluble fusion proteins, formed from the extracytoplasmic domain of either E selectin or P selectin and the constant region of a human immunoglobulin of the IgG1 subclass, were used as binding partners.
Preparation of P selectin-IgG1
The gene construct "CD62Rg", published by Aruffo et al., 1991, is used to prepare the soluble P selectin-IgG1 fusion protein. The subsequent procedure corresponds to the preparation of L selectin-IgG1 which was described in A1. Aruffo, A., Kolanus, W., Walz, G., Fredman, P. and Seed, B. 1991. CD62/-P-Selectin recognition of myeloid and tumor cell sulfatides. Cell 67, 35-44. […]
7. The quantity of BCECF-AM-labeled cells adhering in the wells is measured in a cytofluorimeter (Millipore) at a sensitivity setting of 4, an excitation wavelength of 485/22 nm and an emission wavelength of 530/25 nm.

For experiment [3], the target named is T2, E selectin (Homo sapiens, UniProt P16581).
T2 construct: formed from the extracytoplasmic domain of either E selectin or P selectin; made in house; host or cells: COS-7 cells (ATCC), transient transfection with DEAE dextran; secreted into culture supernatant, captured on anti-human IgG
T2 sequence (P16581 22-556): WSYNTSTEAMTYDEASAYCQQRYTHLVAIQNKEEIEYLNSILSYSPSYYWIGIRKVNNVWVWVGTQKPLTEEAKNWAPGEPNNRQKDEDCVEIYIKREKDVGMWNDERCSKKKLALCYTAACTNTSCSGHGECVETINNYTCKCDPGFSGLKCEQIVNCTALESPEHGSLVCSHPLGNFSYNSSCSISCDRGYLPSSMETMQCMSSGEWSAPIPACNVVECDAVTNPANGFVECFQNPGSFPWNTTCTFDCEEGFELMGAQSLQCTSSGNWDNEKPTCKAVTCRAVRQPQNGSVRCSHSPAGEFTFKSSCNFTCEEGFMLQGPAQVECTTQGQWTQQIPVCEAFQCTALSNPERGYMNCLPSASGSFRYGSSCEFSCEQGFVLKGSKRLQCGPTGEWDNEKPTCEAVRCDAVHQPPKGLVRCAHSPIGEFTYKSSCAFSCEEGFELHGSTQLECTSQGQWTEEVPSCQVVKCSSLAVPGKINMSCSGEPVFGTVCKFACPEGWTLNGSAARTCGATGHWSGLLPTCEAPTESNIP
In words: HL60 cell adhesion assay on recombinant, soluble E selectin-IgG1 fusion protein. Type of experiment: cell-based. The following applies: HL60 cells.
Excerpt: as §1, §2
Preparation of L selektin-IgG1
The gene construct "ELAM-Rg", published by Walz et al., 1990, was used to prepare soluble […] fusion protein.
For the purposes of expression, the plasmid DNA was transfected into COS-7 cells (ATCC) using DEAE dextran (molecular biological methods: see Ausubel, F. M., Brent, R., Kingston, R. E., Moore, D. D., Seidman, J. G., Struhl, K. and Smith, J. A. 1990. Current Protocols in Molecular Biology, John Wiley, New York). […]

Experiment [4] relates to neutrophil adhesion. In words: Reperfusion model on the open rabbit heart (Langendorff), leukocyte accumulation and arrhythmias. The following applies: perfused rabbit heart, 30 min ischemia, 30 min reperfusion; vs untreated hearts. On the procedure: Reperfusion model for investigating the influence of neutrophil adhesion in the course of ischemialreperfusion carried out on the open rabbit heart.
The hearts are perfused with nutrient solution, and also with/without leukocytes and/or active compound, at constant pressure using the Langendorff technique. After that, an ischemia is elicited by ligating the left coronary artery (30 min). Following reperfusion (30 min), the accumulation of leukocytes is evaluated histologically. During the course of the experiment, potentials and arrhythmias are measured at 256 electrodes (total duration of the experiment, approx. 90 min). […] The compounds according to the present invention, and also their physiologically tolerated salts, are very well suited, owing to their valuable pharmacological properties, for use as medicines in mammals, in particular humans.

Experiment [5] deals with selectin receptors. The following applies: all known in-vitro test systems; Jacob et al., 1995; read-out: IC50 (inhibition of cell adhesion to selectin receptors); cited from earlier work.
For experiment [6], the system named is myocardial reperfusion injuries. Conditions: M. Buerke et al., 1994; cited from earlier work.

Turning to `C[C@@H]1O[C@@H](O[C@H](COCCCCCC(C(=O)O)C(=O)O)[C@@H](COCCCCCC(C(=O)O)C(=O)O)O[C@@H]2O[C@@H](C)[C@@H](O)[C@@H](O)[C@@H]2O)[C@@H](O)[C@H](O)[C@@H]1O` [Compound 6a, 1,4-bis(5-malonyl-1-pentyloxy)-2,3-bis(α-L-fucopyranosyl)-D-threitol], the “inhibition (of leukocyte adhesion)” value in experiment [1] amounted to 39%. For the same molecule, the IC50 in experiment [2] fell in the range of 3500 to 4100 µM; in experiment [3], 500 to 1500 µM.

As for chondroitin sulfate, in experiment [4], the arrhythmias entry is given as “fewer arrhythmias” and the leukocyte accumulation result is “less leukocyte accumulation”.

On to sialyl Lewis X [SLeX], for which the IC50 in experiment [5] was about 1000 µM. Also, the “use in animal experiments, myocardial reperfusion injuries” value in experiment [6] is listed as “used successfully”.

A word on the IC50: it is the concentration that inhibits the measured activity by half.

The record behind these values is US5811405A (Hoechst Aktiengesellschaft, priority 1996, dated 1998).
